Columns and labels:
DNA = experiment: Fluorescence titration with DNA in PBS buffer; type: binding; details: PBS buffer pH=7.4, DNA <25 μg mL^−1
From the text: The pyrene segment of the pyrene-based compounds having a pyridinium group of the present invention is thought to play an important role in the interaction of probes made with the pyrene-based compounds having a pyridinium group of the present invention with DNA, as planar aromatic compounds are usually regarded as DNA intercalators. In order to shed some light on the interaction between probes made from the pyrene-based compounds having a pyridinium group of the present invention and DNA, fluorescence spectra were acquired when DNA was added into probes made from the pyrene-based compounds having a pyridinium group of the present invention in a PBS buffer solution (pH=7.4). […] Therefore, the initial fluorescence quenching was attributed to the interaction between probes made from the pyrene-based compounds having a pyridinium group of the present invention and DNA, possibly involving insertion of dye molecules into DNA groves.

[1] = in the presence of DNA in Tris buffer; cited from earlier work
A549 cells = experiment: Long-term imaging ability; type: cell-based, human
Experimental: For the long-term imaging ability assessment aspect of the experiment, a Zeiss LSM 710 fluorescence confocal microscope with identical settings were used for photostability comparisons of the probes (561 nm (15 mW) laser line; Laser power percentage 1.0; Digital zoom=1; Pinhole=1A U; Master Gain=500; Digital offset=0). Different imaging plates with A549 cells were incubated for 30 minutes at […] with probes made using solutions of the pyrene-based compounds having a benzothiazolium group of the present invention as well as with probes made from LysoTracker® Red DND-99. Fluorescence confocal microscopy images were obtained at 30-minute intervals (identical fluorescence microscopy settings were used during the experiments). ImageJ (NIH) software was used to analyze the obtained images and average relative fluorescence intensity was plotted as a function of time.
The lack of cellular pH perturbation, in addition to its low toxicity, raised the possibility of using the pyrene-based compounds having a benzothiazolium group of the present invention for long term lysosome imaging. Thus, A549 cells were treated with a pyrene-based compound having a benzothiazolium group of the present invention (500 nM) over a period of 6 hours, which gave stable fluorescent confocal microscopy images as shown in FIG. 4A. […]

Compound	fluorescence change on initial addition of DNA (DNA)	fluorescence quantum yield ϕfl [1]	cell morphology during long-term imaging (A549 cells; after 1.5 hours)	average fluorescence intensity vs. staining time (A549 cells; images every 30 minutes)
CN(C)CCNc1ccc(O)c2c1C(=O)c1c(O)ccc(NCCN(C)C)c1C2=O [DRAQ5]	partial fluorescence quenching	about 0.003	–	–
CN(C)CCNC(=O)CCc1ccc2n1[B-](F)(F)[N+]1=C(c3ccc[nH]3)C=CC1=C2 [LysoTracker® Red DND-99]	–	–	significant morphological changes and notable cell shrinkage	significant decrease in relative intensity

— patent publication US20190345121A1, “PYRENE-BASED COMPOUNDS FOR INTRACELLULAR ORGANELLE IMAGING APPLICATIONS” (priority 2018, published 2019)
